In the supplement of paper PMC11451515:

What was measured:
P12-Ichikawa = assay: AUC of viability dose-response curve (% viability x log10 dose units); higher = less sensitive; conditions: 48 h
Summary of the method: (§1)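 Viability of medium-adapted leukemia cells was measured by CellTiter-Glo One luminescence after 48 h at 37°C with library compounds in DMSO. Doses were 11 threefold steps from 47 μM to 0.79 nM, in 1536-well plates at 500 or 1000 cells/well. Signals were normalised per plate to DMSO and cell-free wells and fitted with a four-parameter log-logistic model on log10 dose. Area under the curve was integrated by trapezoidal rule, with curves exceeding full viability scaled and failed quality-control curves removed.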

SEM cells = assay: as above; conditions: 48 h
Summary of the method: as §1

[1] = RPMI 5 mM glucose + 10% dialyzed FBS

## CC(C)c1cnn2c(NCc3ccccc3)cc(N[C@@H](CO)[C@H](O)CO)nc12
P12-Ichikawa; HPLM + 10% dialyzed FBS
  AUC of viability dose-response curve: 327
P12-Ichikawa; RPMI 5 mM glucose + 10% FBS
  AUC of viability dose-response curve: 313
P12-Ichikawa; [1]
  AUC of viability dose-response curve: 320
SEM cells; HPLM + 10% dialyzed FBS
  AUC of viability dose-response curve: 299
SEM cells; RPMI 5 mM glucose + 10% FBS
  AUC of viability dose-response curve: 290
SEM cells; [1]
  AUC of viability dose-response curve: 299

## COc1ccc(Cc2ccc(NC(N)=O)cc2)cc1-c1cccc(Cl)c1
P12-Ichikawa; HPLM + 10% dialyzed FBS
  AUC of viability dose-response curve: 467
P12-Ichikawa; RPMI 5 mM glucose + 10% FBS
  AUC of viability dose-response curve: 465
P12-Ichikawa; [1]
  AUC of viability dose-response curve: 464
SEM cells; HPLM + 10% dialyzed FBS
  AUC of viability dose-response curve: 458
SEM cells; RPMI 5 mM glucose + 10% FBS
  AUC of viability dose-response curve: 465
SEM cells; [1]
  AUC of viability dose-response curve: 469

## CCN(CC)CC#CCOC(=O)C(O)(c1ccccc1)C1CCCCC1 (stereo unspecified)
P12-Ichikawa; HPLM + 10% dialyzed FBS
  AUC of viability dose-response curve: 460
P12-Ichikawa; RPMI 5 mM glucose + 10% FBS
  AUC of viability dose-response curve: 475
P12-Ichikawa; [1]
  AUC of viability dose-response curve: 472
SEM cells; HPLM + 10% dialyzed FBS
  AUC of viability dose-response curve: 458
SEM cells; RPMI 5 mM glucose + 10% FBS
  AUC of viability dose-response curve: 476
SEM cells; [1]
  AUC of viability dose-response curve: 471

## NC[C@H]1CC[C@H](C(=O)O)CC1
SEM cells; HPLM + 10% dialyzed FBS
  AUC of viability dose-response curve: 443
SEM cells; RPMI 5 mM glucose + 10% FBS
  AUC of viability dose-response curve: 456
SEM cells; [1]
  AUC of viability dose-response curve: 456

## CC(C)(C)C(=O)Oc1ccc2c(c1)nc(NC(=O)c1cccc([N+](=O)[O-])c1)n2CCCO
P12-Ichikawa; HPLM + 10% dialyzed FBS
  AUC of viability dose-response curve: 460
P12-Ichikawa; RPMI 5 mM glucose + 10% FBS
  AUC of viability dose-response curve: 437
P12-Ichikawa; [1]
  AUC of viability dose-response curve: 445
SEM cells; HPLM + 10% dialyzed FBS
  AUC of viability dose-response curve: 448
SEM cells; RPMI 5 mM glucose + 10% FBS
  AUC of viability dose-response curve: 452
SEM cells; [1]
  AUC of viability dose-response curve: 418

## ClC1=C(N\C2=N\CCN2)C3=NSN=C3C=C1
P12-Ichikawa; HPLM + 10% dialyzed FBS
  AUC of viability dose-response curve: 461
P12-Ichikawa; RPMI 5 mM glucose + 10% FBS
  AUC of viability dose-response curve: 465
P12-Ichikawa; [1]
  AUC of viability dose-response curve: 455
SEM cells; HPLM + 10% dialyzed FBS
  AUC of viability dose-response curve: 419
SEM cells; RPMI 5 mM glucose + 10% FBS
  AUC of viability dose-response curve: 427
SEM cells; [1]
  AUC of viability dose-response curve: 432

## C[C@H](NC(=O)/C(C#N)=C/c1cccc(Br)n1)c1ccccc1
P12-Ichikawa; HPLM + 10% dialyzed FBS
  AUC of viability dose-response curve: 336
P12-Ichikawa; RPMI 5 mM glucose + 10% FBS
  AUC of viability dose-response curve: 353
P12-Ichikawa; [1]
  AUC of viability dose-response curve: 351
SEM cells; HPLM + 10% dialyzed FBS
  AUC of viability dose-response curve: 336
SEM cells; RPMI 5 mM glucose + 10% FBS
  AUC of viability dose-response curve: 316
SEM cells; [1]
  AUC of viability dose-response curve: 336

## CC1=NN(c2ccc(C)c(C)c2)C(=O)/C1=N/Nc1cccc(-c2cccc(C(=O)O)c2)c1O
P12-Ichikawa; HPLM + 10% dialyzed FBS
  AUC of viability dose-response curve: 448
P12-Ichikawa; RPMI 5 mM glucose + 10% FBS
  AUC of viability dose-response curve: 430
P12-Ichikawa; [1]
  AUC of viability dose-response curve: 426
SEM cells; HPLM + 10% dialyzed FBS
  AUC of viability dose-response curve: 453
SEM cells; RPMI 5 mM glucose + 10% FBS
  AUC of viability dose-response curve: 448
SEM cells; [1]
  AUC of viability dose-response curve: 442

## C[C@H](O)[C@H]1[C@@H]2[C@H](C)C(=C(\N2C1=O)C(O)=O)/S[C@@H]3CN[C@H](CN[S+](N)([O-])=O)C3
P12-Ichikawa; HPLM + 10% dialyzed FBS
  AUC of viability dose-response curve: 465
P12-Ichikawa; RPMI 5 mM glucose + 10% FBS
  AUC of viability dose-response curve: 455
P12-Ichikawa; [1]
  AUC of viability dose-response curve: 447
SEM cells; HPLM + 10% dialyzed FBS
  AUC of viability dose-response curve: 443
SEM cells; RPMI 5 mM glucose + 10% FBS
  AUC of viability dose-response curve: 453
SEM cells; [1]
  AUC of viability dose-response curve: 420

## CC(C)n1c(/C=C/[C@H](O)C[C@H](O)CC(=O)O)c(-c2ccc(F)cc2)c2ccccc21
P12-Ichikawa; HPLM + 10% dialyzed FBS
  AUC of viability dose-response curve: 381
P12-Ichikawa; RPMI 5 mM glucose + 10% FBS
  AUC of viability dose-response curve: 371
P12-Ichikawa; [1]
  AUC of viability dose-response curve: 355
SEM cells; HPLM + 10% dialyzed FBS
  AUC of viability dose-response curve: 430
SEM cells; RPMI 5 mM glucose + 10% FBS
  AUC of viability dose-response curve: 426
SEM cells; [1]
  AUC of viability dose-response curve: 441

## CN1[C@@H]2CC[C@H]1CC(OC(=O)c1c[nH]c3ccccc13)C2 (stereo partly specified)
P12-Ichikawa; HPLM + 10% dialyzed FBS
  AUC of viability dose-response curve: 463
P12-Ichikawa; RPMI 5 mM glucose + 10% FBS
  AUC of viability dose-response curve: 468
P12-Ichikawa; [1]
  AUC of viability dose-response curve: 466

## CN\1C(=O)/C(=C(\N=C1N2CCCC[S+]2([O-])=O)C(=O)NCC3=CC=C(F)C=C3)O
P12-Ichikawa; HPLM + 10% dialyzed FBS
  AUC of viability dose-response curve: 444
P12-Ichikawa; RPMI 5 mM glucose + 10% FBS
  AUC of viability dose-response curve: 462
P12-Ichikawa; [1]
  AUC of viability dose-response curve: 459
SEM cells; HPLM + 10% dialyzed FBS
  AUC of viability dose-response curve: 471
SEM cells; RPMI 5 mM glucose + 10% FBS
  AUC of viability dose-response curve: 458
SEM cells; [1]
  AUC of viability dose-response curve: 466
